≈ marks a conversion by molar mass, not a printed value. Each block holds one compound with its values, some of them ahead of it.
What was measured:
[1] = Colloidal solubilization of corticosteroid with non-ionic surfactant and lecithin (Lipoid S 100); assay type: physicochemical; conditions: for solubility: pH 4.5, aqueous with cosolvent or surfactant or cyclodextrin
Procedure: In analogy to example 2, colloidal solutions of budesonide were prepared using polysorbate 80 as non-ionic surfactant component (instead of tyloxapol) and lecithin of the commercial grade, Lipoid S 100, as phospholipid component. Citric acid and sodium citrate were used as buffer system to adjust the pH to 4.5. Sodium chloride (0.846% w/w) was used as osmotic excipient. Disodium edetate (0.01% w/w) was incorporated as stabilizer preventing oxidation.
The taste of the samples was acceptable. The average diameter of the colloidal structures ranged from about 40 to about 50 nm, with polydispersity indices of 0.2 to 0.3. The colloidal solution with the lowest concentration of the non-ionic surfactant and phospholipid component was also investigated by small angle X-ray scattering, which indicated the presence of colloidal structures which were probably in the form of unilamellar liposomes.
(§1) In analogy to example 9, colloidal solutions of budesonide were prepared using vitamin E TPGS as non-ionic surfactant component and lecithin of the commercial grade, Lipoid S 100, as phospholipid component. The other excipients and their content remained the same as in example 9.
The taste of the samples was acceptable. The particles size of the colloidal structures was about 50 to 55 nm, with polydispersity indices of 0.2 to 0.3.
as §1, with “using both” for “using”, “TPGS and polysorbate 80 in combination” for “TPGS”
In analogy to example 9, colloidal solutions of budesonide were prepared using macrogol-15-hydroxystearate as non-ionic surfactant component and lecithin of the commercial grade, Lipoid S 100, as phospholipid component. The other excipients and their content remained the same as in example 9.
In analogy to example 9, colloidal solutions of were prepared using polysorbate 80 as non-ionic surfactant component and lecithin of the commercial grade, Lipoid S 100, as phospholipid component. However, fluticasone propionate was used instead of budesonide as poorly water soluble active agent. The other excipients and their content remained the same as in example 9.

[2] = Saturation solubility of budesonide in buffered aqueous tyloxapol / DMPC solutions (0.22 μm filtrate); assay type: physicochemical; conditions: for solubility: buffered aqueous tyloxapol/DMPC solution, aqueous with cosolvent or surfactant or cyclodextrin, thermodynamic from solid
Procedure: Buffered aqueous solutions of tyloxapol, DMPC and tyloxapol in a mixture with DMPC were prepared. The saturation solubility of budesonide in these solutions was measured by adding an excess of budesonide and treating the sample with heat and ultrasound and subsequently allowing it to stand for equilibration. The equilibrated samples were filtered through a membrane filter with a poor width of 0.22 μm and the content of budesonide in the filtrate was determined.

solubility ([1]; Polysorbate 80 0.10 wt.%, Lipoid S100 1.0 wt.%, pH 4.5, read-out: Budesonide solubilized): 360 µg/mL
solubility ([1]; Polysorbate 80 0.15 wt.%, Lipoid S100 1.5 wt.%, pH 4.5, read-out: Budesonide solubilized): 430 µg/mL
solubility ([1]; Polysorbate 80 0.25 wt.%, Lipoid S100 1.5 wt.%, pH 4.5, read-out: Budesonide solubilized): 470 µg/mL
solubility ([1]; Polysorbate 80 0.40 wt.%, Lipoid S100 1.5 wt.%, pH 4.5, read-out: Budesonide solubilized): 500 µg/mL
solubility ([1]; Polysorbate 80 0.50 wt.%, Lipoid S100 2.0 wt.%, pH 4.5, read-out: Budesonide solubilized): 830 µg/mL
solubility ([1]; Polysorbate 80 0.50 wt.%, Lipoid S100 3.0 wt.%, pH 4.5, read-out: Budesonide solubilized): 1090 µg/mL
solubility ([1]; Solutrol HS 15 0.10 wt.%, Lipoid S100 1.5 wt.%, read-out: Budesonide solubilized): 430 µg/mL
solubility ([1]; Solutrol HS 15 0.25 wt.%, Lipoid S100 1.5 wt.%, read-out: Budesonide solubilized): 470 µg/mL
solubility ([1]; Solutrol HS 15 0.50 wt.%, Lipoid S100 1.5 wt.%, read-out: Budesonide solubilized): 480 µg/mL
solubility ([1]; Vitamin E TPGS 0.10 wt.%, Lipoid S100 1.0 wt.%, read-out: Budesonide solubilized): 370 µg/mL
solubility ([1]; Vitamin E TPGS 0.10 wt.%, Lipoid S100 1.5 wt.%, read-out: Budesonide solubilized): 440 µg/mL
solubility ([1]; Vitamin E TPGS 0.25 wt.%, Lipoid S100 1.5 wt.%, read-out: Budesonide solubilized): 460 µg/mL
solubility ([1]; Vitamin E TPGS 0.50 wt.%, Lipoid S100 1.5 wt.%, read-out: Budesonide solubilized): 480 µg/mL
solubility ([1]; Vitamin E TPGS 0.50 wt.%, Lipoid S100 2.0 wt.%, read-out: Budesonide solubilized): 800 µg/mL
solubility ([1]; vitamin E TPGS 0.04 wt.-%, polysorbate 80 0.06 wt.-%, lecithin 1.0 wt.-%, read-out: Budesonide colloidally solubilized concentration): 380 µg/mL
solubility ([1]; vitamin E TPGS 0.2 wt.-%, polysorbate 80 0.3 wt.-%, lecithin 3.0 wt.-%, read-out: Budesonide colloidally solubilized concentration): 950 µg/mL
solubility ([2]; Tyloxapol 0 wt %, DMPC 1 wt %): 20 µg/mL (≈ 46.5 µM)
solubility ([2]; Tyloxapol 1 wt %, DMPC 0.5 wt %): 268 µg/mL (≈ 622 µM)
solubility ([2]; Tyloxapol 1.5 wt %, DMPC 0 wt %): 204 µg/mL (≈ 474 µM)
Saturation concentration of budesonide in DMPC solutions ([2]; on further increasing the DMPC content): could not be increased
Structure (SMILES): CCCC1O[C@@H]2C[C@H]3[C@@H]4CCC5=CC(=O)C=C[C@]5(C)[C@H]4[C@@H](O)C[C@]3(C)[C@]2(C(=O)CO)O1 (stereo partly shown) [Budesonide, budesonide]

Fluticasone prop. solubilized ([1]; Polysorbate 80 0.10 wt.%, Lipoid S100 1.0 wt.%): 0.07 mg/mL
solubility ([1]; Polysorbate 80 0.50 wt.%, Lipoid S100 3.0 wt.%, read-out: Fluticasone prop. solubilized): 180 µg/mL
Structure (SMILES): CCC(=O)O[C@]1(C(=O)SCF)[C@H](C)C[C@H]2[C@@H]3C[C@H](F)C4=CC(=O)C=C[C@]4(C)[C@@]3(F)[C@@H](O)C[C@@]21C [Fluticasone prop., fluticasone propionate]
